# Experimental data: patent publication US20020183258A1, “Process of inhibiting cell death in injured cartilage” (The Scripps Research Institute, priority 2001, published 2002)
# “Also recorded” adds a separate entry of the source. Where a SMILES comes first, the peptide text is derived from it. The star is where a group is joined. Cbz = O=C(OCc1ccccc1)*; CH2F = FC*
# How the values were obtained:
# [1] = test system: bovine cartilage explants; assay: Load-induced chondrocyte apoptosis (TUNEL) in mechanically injured bovine cartilage explants; type: cell-based; conditions: for Mean (±SD) apoptosis rates, Loaded + Agent: bovine femoral condyle cartilage, loaded at 23 MPa, rate = percentage of TUNEL positive cells, n = 8 to 10
# From the text: Macroscopically normal weight bearing portions of freshly slaughtered skeletally mature bovine femoral condyles were selected from animals between 2 and 6 years of age (Animal Technologies, Austin, Tex.). Only joints without visible signs of degeneration or aging were selected. Using sterile techniques, fall thickness cartilage was separated from underlying subchondral bone with a scalpel and 5 mm diameter cylindrical explants, ranging from 1 to 1.8 mm in height, cored out using a dermal punch (Acuderm, Inc., Ft. Lauderdale, Fla.). Explants taken from adjacent sites were used as matched controls for each group in each experiment to minimize variation in cartilage response due to differences in thickness and location within the joint. Each explant was weighed and allowed to stabilize at 37° C. and 5% CO2 for 48 hours in 1 ml of Dulbecco's modified Eagle's medium (DMEM) supplemented with 10% fetal bovine serum (FBS), L-glutamine, antibiotics and 50 μg/ml ascorbic acid.
# Full thickness bovine cartilage explants, 5 mm in diameter, were subjected to a single static mechanical load of 7, 14 or 23 MPa for 500 msec. This model simulates traumatic cartilage injury and the loads were similar in magnitude to those generated during traumatic joint injury. Glycosaminoglycan (GAG) release and percent apoptotic cells were measured. The effect of a pan-caspase inhibitor, z-VAD.fmk [benzyloxycarbonyl-Val-Ala-Asp (OMe) fluoromethylketone] in preventing chondrocyte apoptosis was determined. z-VAD.fmk is a fluoromethylketone irreversible inhibitor of a broad spectrum of caspases. […] The percentage of apoptotic chondrocytes was related to load intensity and correlated with the level of GAG release from cartilage. […] This identifies a new approach to limit traumatic cartilage injury and the subsequent development of secondary osteoarthritis.
# A model to simulate acute joint injury was used in this study based on injury models reported by Repo and Finlay, and Jeffrey et al. (Repo, et al. (1977) J. Bone Joint Surg. Am. 59A, 1068-1076, Jeffrey, et al. (1995) Arch. Biochem. Biophys. 322, 87-96). Although these reported models impacted cartilage using drop towers, a more controlled method was chosen for applying and maintaining stress or strain as follows. An Instron 8511 servohydraulic testing machine (Instron Corporation, Boston, Mass.) was used to mechanically load the cartilage explants. Explants were transported from the incubator to the Instron machine in sealed cell culture dishes. The explant was centralized on a stainless steel loading platform and a radially unconfined compressive load was applied through an impermeable stainless steel platen. A small preload (0.1 MPa) was applied for 2 minutes, followed by a single 500 msec trapezoidal loading waveform at the selected stress. The stress rose from 0.1 MPa to the chosen stress level in 100 msec and was maintained for 500 msec. Three stress levels were chosen to represent acute joint injury. 7 MPa has been reported to be the upper limit of physiologic stress developed during activities of daily living (von Eisenhart, et al. (1999) J. Orthop. Res. 17, 532-539). 23 MPa is the stress above which the underlying bone has been reported to fracture (Haut (1989) J. Orthop. Res. 7, 272-280). Control explants were placed in the loading apparatus but not loaded. Both control and loaded explants were re-cultured in fresh culture media immediately after loading. Stress and strain data were recorded during the test. […]
# human cartilage explants = assay: Load-induced chondrocyte apoptosis (TUNEL) in mechanically injured human cartilage explants; type: cell-based; conditions: for Mean (±SD) apoptosis rates, Loaded + Agent: human cartilage (femoral condyles and tibial plateaus), n = 8 to 10
# From the text: Macroscopically normal tibial and femoral articular surfaces were selected from human cadaver donors between 18 and 45 years of age. Using sterile techniques, full thickness cartilage was separated from underlying subchondral bone with a scalpel. 5 mm diameter cylindrical explants, ranging from 2 to 2.8 mm in thickness, cored out using a dermal punch (Acuderm, Inc., Ft. Lauderdale, Fla.). Explants taken from adjacent sites were used as matched controls for each group in each experiment to minimize variation in cartilage response due to differences in thickness and location within the joint. Each explant was weighed and allowed to stabilize at 37° C. and 5% CO2 for 48 hours in Dulbecco's modified Eagle's medium (DMEM) supplemented with 5% fetal bovine serum (FBS), L-glutamine, antibiotics and […] ascorbic acid.
# An Instron 8511 servohydraulic testing machine (Instron Corporation, Boston, Mass.) was used to mechanically load the cartilage explants. Explants were transported from the incubator to the Instron machine in sealed cell culture dishes. The total time duration of loading for a single experiment varied from approximately 1 to 2 hours depending on the number of samples. […] Stress and strain data were recorded during the test.
# To determine whether caspase inhibitors could prevent apoptosis, explants were cultured in […] z-VAD.fmk (a broad spectrum caspase inhibitor) immediately after injury (30% strain level). Percentage apoptosis was measured at 96 hours post-injury in three groups (control, loaded, and loaded with z-VAD.fmk) with ten explants each in two separate experiments.
# Explants loaded as described above were fixed in 10% buffered formalin. […] This was detected by immunohistochemical staining with M30 (Cytodeath, Boehringer Mannheim, Eugene, Oreg.), a monoclonal antibody that recognizes the neo-epitope exposed in early apoptosis.
# In an additional study the apoptosis response of human articular cartilage to mechanical stress was examined. […] GAG release and percentage of cells undergoing apoptosis were measured at 96 hours after injury. […]
# [2] = test system: bovine cartilage explants; assay: Glycosaminoglycan (GAG) release assay (dimethylene blue) in injured bovine cartilage explants; type: cell-based; conditions: loaded, z-VAD.fmk 100 μM, 48 hours
# Procedure: Glycosaminoglycan release assay. To estimate GAG depletion and release, the concentration of sulfated glycosaminoglycans was measured using 1,9-Dimethylene Blue (DMMB) as a monitor of spectrophotometric changes which occur during the formation of the sulfated GAG dye complex (Fardale, et al. (1986) Biochim. Biophys. Acts. 883, 173-177, Goldberg, et al. (1993) Agents Actions 39 Spec No, C163-C165). For GAG content measurement, samples were digested in papain and collagenase and the concentration of sulfated GAG measured using DMMB. To generate a standard curve, chondroitin-6-sulfate (Sigma, St. Louis, Mo.) was used at concentrations between 1 and 200 μg/ml. GAG released in media was normalized to the pooled mean GAG content of Control (uninjured) cartilage explants and expressed as a percentage of total GAG content.
# To determine whether apoptosis could be prevented by caspase inhibition, 12 explants were loaded at 23 MPa (High Load) and cultured for 48 hours. […] Six more explants were used as non-loaded controls. Percent apoptosis and GAG release in media was measured as described above.
# Release of sulfated glycosaminoglycans (GAG) was analyzed as a measure of the extent of damage sustained by the explant. […] GAG depletion was assessed by dimethylene blue binding assays of the culture supernatants and this correlated with the reduced of safranin O staining of the cartilage sections.
# [3] = test system: rabbits with ligament transection; assay: Intraarticular injection of caspase inhibitor in rabbits with anterior cruciate ligament transection (ACLT); type: in vivo, New Zealand White rabbits
# Procedure: A pilot study was performed to assess feasibility and efficacy of caspase inhibition in vivo. Eight New Zealand White rabbits were divided into anterior cruciate ligament transection (ACLT) and ACLT+caspase inhibitor (CI) groups. Both groups underwent bilateral ACLT. The ACLT+CI group was treated with intra-articular injections of 25 μg of z-VAD.fmk three times per week for six weeks while the control group received saline injections. Rabbits were euthanised at six weeks and femoral and tibial articular cartilage evaluated by India ink staining and histologic Mankin grading after Safranin-O stain.
# Histologically, more knees from the ACLT group had higher Mankin scores. 87% (⅞) ACLT knees had grades 5 or higher, while 50% ( 4/8) ACLT+CI knees were graded 5 or higher. The India ink stained femoral condyles were photographed and digital images were used to quantify the surface areas of the lesions.
Compound,"Mean (±SD) apoptosis rates, Loaded + Agent [1]","reduction in the apoptosis rate ([1]; bovine explants, high and intermediate load groups, vs loaded without agent) [%]","effect on chondrocyte apoptosis after mechanical injury ([1]; bovine explants, single static load, 500 msec)","Mean (±SD) apoptosis rates, Loaded + Agent (human cartilage explants; loaded at 23 MPa (footnote *))","reduction in apoptosis rates (human cartilage explants; human explants, 30% strain, cultured in 100 mM z-VAD.fmk after injury, 96 hours post-injury, p<0.05) [%]",effect on GAG release / GAG depletion after mechanical injury [2],"reduction of the size (surface area) of the cartilage lesions ([3]; rabbit ACLT, India ink stained femoral condyles, digital images, six weeks, 25 μg intra-articular three times per week) [%]","India ink grade of cartilage lesions ([3]; rabbit ACLT, six weeks, 25 μg intra-articular three times per week (ACLT saline: grade III to IVa))","area of cartilage lesions under India ink examination ([3]; rabbit ACLT, six weeks, vs ACLT saline group)","knees with histologic Mankin grades 5 or higher ([3]; rabbit bilateral ACLT, 25 μg intra-articular three times per week for six weeks, 4/8 knees (ACLT saline 87%)) [%]","Mean (±SD) apoptosis rates, Loaded + Agent (human cartilage explants; loaded at 30% strain)"
C[C@@H]1C[C@H]2[C@@H]3CCC4=CC(=O)C=C[C@]4(C)[C@@]3(F)[C@@H](O)C[C@]2(C)[C@@]1(O)C(=O)CO [Dexameth.],47 (±11.2),–,–,–,–,–,–,–,–,–,–
"COC(=O)CC(NC(=O)C(C)NC(=O)C(NC(=O)OCc1ccccc1)C(C)C)C(=O)CF (stereo not drawn) [z-VAD.fmk, benzyloxycarbonyl-Val-Ala-Asp (OMe) fluoromethylketone] (Cbz-Val-Ala-Asp(OMe)-CH2F; configuration not given here)",31 (±13.9),> 50,reduced chondrocyte apoptosis after mechanical injury,34 (±10.2)*,50,reduction in GAG release; also recorded: normalization of the GAG depletion,~80,"ranged from II (minimum fibrillation), with only one rabbit (two knees) having a Grade III to IVa lesion",lesions that were smaller in area,50,–
IGF-1: agent tested for pharmacologic modulation of apoptosis after cartilage injury in vitro,42 (±10.9),–,–,–,–,–,–,–,–,–,10 (±6.2)
